The results in this text go back to paper PMC10149896 (Acta Pharmaceutica Sinica. B, 2022).

Assay [1] relates to DoBBS8. Briefly: HPLC quantification of dihydroresveratrol, nonlinear regression. The assay is classed as biochemical, Dendrobium officinale. The note with it: malonyl-CoA 2.0 mmol/L fixed; 30 °C, 30 min.
Assay [2] concerns the target T1, UGT71E5 (Carthamus tinctorius, UniProt A0A1P8C3B1).
T1 sequence (A0A1P8C3B1 1-480): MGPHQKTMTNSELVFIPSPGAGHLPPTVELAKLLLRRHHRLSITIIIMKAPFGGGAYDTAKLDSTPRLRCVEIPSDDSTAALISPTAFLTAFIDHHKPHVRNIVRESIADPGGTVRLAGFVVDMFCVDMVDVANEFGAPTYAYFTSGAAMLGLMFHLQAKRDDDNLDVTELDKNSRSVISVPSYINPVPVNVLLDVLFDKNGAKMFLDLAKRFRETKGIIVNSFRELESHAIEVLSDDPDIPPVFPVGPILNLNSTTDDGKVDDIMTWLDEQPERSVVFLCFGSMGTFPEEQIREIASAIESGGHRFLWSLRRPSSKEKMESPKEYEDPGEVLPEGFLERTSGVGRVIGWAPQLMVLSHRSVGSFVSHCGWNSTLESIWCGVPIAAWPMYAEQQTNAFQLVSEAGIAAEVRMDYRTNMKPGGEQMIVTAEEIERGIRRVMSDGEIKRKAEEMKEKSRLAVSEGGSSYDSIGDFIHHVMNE
Briefly: HPLC-MS conversion. The assay is classed as biochemical. The note with it: 0.4 mmol/L acceptor, 0.8 mmol/L UDP-Glc, pH 7.4.

What is called Km is the substrate concentration at which the rate is half of its maximum. `CC(C)(COP(=O)(O)OP(=O)(O)OC[C@H]1O[C@@H](n2cnc3c(N)ncnc32)[C@H](O)[C@@H]1OP(=O)(O)O)[C@@H](O)C(=O)NCCC(=O)NCCSC(=O)CCc1ccc(O)cc1` [p-hydroxyphenylpropionyl-CoA]: the Km in assay [1] came out at 61.8 µM.
Consider `Oc1ccc(CCc2cc(O)cc(O)c2)cc1` [compound 1, dihydro-resveratrol], for which the conversion rate in assay [2] is listed as 94%.
